Measurements: US6562837B1, “Use of tetrahydroisoquinoline compounds for the treatment of septicemia” (Korea Institute of Science & Technology, priority 1998, dated 2003)
Read-outs that look alike come from different tables or passages of the source.

Assays:
human platelets = experiment: Inhibitory effect on platelet aggregation in human platelet rich plasma; assay type: cell-based
Experimental: For experiment, a blood platelet concentrate which was purchased from the Blood Bank of the Seoul National University Hospital, Korea, was measured for the number of platelets with the aid of a platelet analyzer (PLT-4, Texas Instruments), and diluted with phosphate buffered saline (hereinafter referred to as “PBS”) to give platelet rich plasma (hereinafter referred to as “PRP”) which ranged, in platelet number, from 300×10^6 to 400×10^6/ml. After being incubated at 37° C. for 3 min, PRP was added with ADP, collagen or epinephrine to induce platelet aggregation. The reduction in turbidity of PRP was observed and the degree of aggregation was monitored using a platelet aggregometer, such as that manufactured by Chrono-Log Corp. U.S.A., identified as “Model 500VS”.
The inhibitory activities of sample compounds against the platelet aggregation were evaluated as the % inhibition calculated according to the following equation: […]
A: aggregation degree of platelets obtained when adding a platelet aggregation inducer alone;
B: aggregation degree of platelets obtained when adding a combination of a platelet aggregation inducer and a sample.
Obtained using human platelets, the inhibitory effects of the compounds of Chemical Formulas 1 and 2 on platelet aggregation are given, along with the results from the control higenamine, in Table 1, below.

α-receptor = experiment: Binding affinity to α-adrenoceptor, [3H]prazosin, rat cerebral cortical membrane; details: [3H]prazosin 200 pM, 25° C., 30 min, read-out: Dissociation constant Ki (M) for cerebral α-receptor of rat
Experimental: For this, the cerebral cortex obtained from rats (Sprague-Dawley, 250±20 g; unless particularly mentioned, the same rats were used in the following experiments) was homogeneously mixed with a 20× buffer (50 mM Tris, 5 mM MgSO4, 1 mM EDTA, 1 mM ascorbic acid, pH 7.7) and then, centrifuged three times at 35,000×g for 15 min and the pellet was stored at −70° C. A solution of 5 mg of the pellet in 1 ml of the buffer was incubated, along with [^3H]prazosin (200 pM) and samples, at 25° C. for 30 min followed by adding 10 ml of a buffer (50 mM Tris, pH 7.7) to quench the binding reaction. The resulting solution was filtered through a Whatman GF/C glass microfiber filter which was then shaken for 2 hours while being completely submerged in a scintillation cocktail. The radioactivity was measured using a scintillation counter (Beckman, LS6500)

iNOS mRNA = experiment: Suppression of LPS-induced iNOS mRNA expression in rat isolated aorta (Northern blot); assay type: cell-based; details: LPS 300 ng/ml, 8 hours; compound 10, 30 and 100 μM; FIG. 1
Experimental: Rats were anesthetized with pentobarbital sodium (50 mg/kg) and the aorta was isolated, followed by removing endothelium from the aorta. After being incubated at 37° C. for 8 hours in a Krebs solution containing 300 ng/ml of LPS, the aorta was subjected to total RNA extraction with the aid of a trizol solution (GibcoBRL). After quantification by use of a UV spectrophotometer (Shimadzu, UV-1201), the total RNA obtained was electrophoresed on a formamide-formaldehyde agarose gel and transferred to a nylon membrane. Thereafter, the total RNA on the nylon membrane was hybridized with cDNA probes for iNOS to determine the expression level of iNOS mRNA, in which the cDNA of iNOS was labeled with ^32P-dCTP by a random-primer method. For quantification, an x-ray film was exposed to the radioactive irradiation from the nylon membrane and developed to compare the dot sizes of desired objects with those of GAPDH (glyceraldehyde-3-phosphate dehydrogenase).
When aortic preparations were incubated, in vitro, the blood vessel was cultured, in vitro, in the presence of LPS, iNOS mRNA was transcribed in a large amount. […]

[1] = system: NO synthesis in macrophages (RAW 264.7 cells); experiment: Suppression of LPS- and IFN-γ-induced NO synthesis in macrophage (nitrite, Griess reagent); assay type: cell-based; details: 18 hours, control 8, LPS + IFN-γ alone 57
Experimental: In a DMEM medium supplemented with thermally treated 10% fetal calf serum, penicillin (100 U/ml) and streptomycin ([…]), macrophages (RAW 264.7 cells) were cultured to be confluent in a CO2 incubator. After being transferred to a serum-free DMEM medium, the cells were cultured for additional 24 hours and then, further for 18 hours in the presence of LPS (100 ng/ml) and IFN-γ, and either of the compounds of Chemical Formulas 1 and 2 (0, 1, 10, and 100:μM). The amount of the NO synthesized was measured indirectly through the amount of nitrite, an oxidation product of NO. To this end, the nitrite was subjected to color reaction with the Griess reagent (0.1% naphthylethylenediamine dihydrochloride, 1% sulphanilamide, 5% phosphate solution) and its absorbance at 550 nm was measured by a spectrophotometer.

[2] = Toxicity experiment, 50% lethal dose (LD50); details: in vivo, ip; intraperitoneally injected
[3] = system: iNOS mRNA in macrophages (RAW 264.7 cells); experiment: Suppression of LPS- and IFN-γ-induced iNOS mRNA expression in macrophage (Northern blot); assay type: cell-based; details: LPS 100 ng/ml + IFN-γ 10 U/ml, 18 hours, compound 1, 10 and 100 μM, FIG. 2
Experimental: In a DMEM medium supplemented with thermally treated 10% fetal calf serum, penicillin (100 U/ml) and streptomycin ([…]), macrophages (RAW 264.7 cells) were cultured to be confluent in a CO2 incubator. After being transferred to a serum-free DMEM medium, the cells were cultured for additional 24 hours and then, further for 18 hours in the presence of LPS (100 ng/ml) and interferon-γ (hereinafter referred to as “IFN-γ”; 10 U/ml), and/or the compound of Chemical Formula 2 (0, 1, 10, and 100:μM). Using a trizol solution, the total RNA was extracted from the cultured macrophages. After quantification in a spectrophotometer, the total RNA obtained was electrophoresed on a formamide-formaldehyde agarose gel and transferred to a nylon membrane. Thereafter, the total RNA on the nylon membrane was hybridized with cDNA probes for iNOS to determine the expression level of iNOS mRNA, in which the cDNA of iNOS was labeled with ^32P-dCTP by a random-primer method. For quantification, an x-ray film was exposed to the radioactive irradiation from the nylon membrane and developed to compare the radioactivity level of desired objects with those of GAPDH. […]

[4] = Homo sapiens, read-out: IC50 (M), ADP-induced platelet aggregation
[5] = human PRP, inducer collagen 2-4 × 10^−6 g/ml, read-out: IC50 (M), collagen-induced platelet aggregation
[6] = human PRP, inducer epinephrine 2 × 10^−6 M, read-out: IC50 (M), epinephrine-induced platelet aggregation

| Structure (SMILES) | IC50 (human platelets; [4]) [M] | IC50 (human platelets; [5]) [M] | IC50 (human platelets; [6]) [M] | Ki (α-receptor) [M] | LPS-induced iNOS mRNA expression in isolated rat aorta (iNOS mRNA) | Concentration of Nitrite ([1]; compound 1 μM + LPS + IFN-γ) [µM] | Concentration of Nitrite ([1]; compound 10 μM + LPS + IFN-γ) [µM] | Concentration of Nitrite ([1]; compound 100 μM + LPS + IFN-γ) [µM] | LD50 [2] [mg/kg] | LPS/IFN-γ-induced iNOS mRNA expression in macrophages [3] | IC50 (human platelets; human PRP, inducer ADP 1 × 10^−3 M, read-out: IC50 (M), ADP-induced platelet aggregation) [M] |
| --- | --- | --- | --- | --- | --- | --- | --- | --- | --- | --- | --- |
| Oc1cc2c(cc1O)C(Cc1cccc3ccccc13)NCC2 (stereo not drawn) [Compound 1, 1-α-naphthylmethyl-6,7-dihydroxy-1,2,3,4-tetrahydroisoquinoline] | 0.00073 | 9.2e-05 | 3.4e-06 | 2.7e-07 | inhibits the LPS-induced iNOS mRNA expression in a concentration-dependent manner | 30 ± 2.9 | 25 ± 3.4 | 9 ± 3.0 | 290 | – | – |
| Oc1cc2c(cc1O)C(Cc1ccc3ccccc3c1)NCC2 (stereo not drawn) [Compound 2, 1-β-naphthylmethyl-6,7-dihydroxy-1,2,3,4-tetrahydroisoquinoline] | 0.00086 | 9.6e-06 | 6e-06 | 1.5e-07 | – | 34 ± 3.1 | 22 ± 2.8 | 11 ± 2.0 | 439 | inhibits the LPS/IFN-γ-induced iNOS mRNA expression in a concentration-dependent manner | – |
| Oc1ccc(CC2NCCc3cc(O)c(O)cc32)cc1 (stereo not shown) [Higenamine, reference compound] | – | 7e-05 | 1.9e-05 | 1.26e-06 | – | – | – | – | – | – | > 0.001 |
